Biological target: T1, human PAR4 (Homo sapiens, UniProt Q96RI0)
T1 construct: expressed in transfected cells; host or cells: HEK293 PAR4 Clone 1.2A (BMS Arctic ID 383940)
T1 sequence (Q96RI0 18-385): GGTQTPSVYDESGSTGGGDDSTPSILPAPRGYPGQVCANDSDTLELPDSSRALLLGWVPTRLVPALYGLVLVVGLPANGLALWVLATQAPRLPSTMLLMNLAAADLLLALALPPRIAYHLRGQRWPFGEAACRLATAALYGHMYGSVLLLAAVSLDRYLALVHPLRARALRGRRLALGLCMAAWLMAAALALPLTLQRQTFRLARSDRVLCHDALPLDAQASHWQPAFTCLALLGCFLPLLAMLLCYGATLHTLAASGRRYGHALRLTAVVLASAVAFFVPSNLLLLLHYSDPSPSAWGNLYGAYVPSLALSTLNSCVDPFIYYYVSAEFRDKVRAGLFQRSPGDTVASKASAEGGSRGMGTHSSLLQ
Assay: PAR4 FLIPR assay: antagonism of agonist-peptide-induced calcium mobilization in PAR4-expressing HEK293 cells
Format: cell-based
Details: H-Ala-Phe(4-F)-[…]NH2-induced intracellular calcium mobilization, 11-point curves

| SMILES | IC50 |
| --- | --- |
| COc1cnc2c(-c3nc4c(C)cc(OCC(=O)O)cc4s3)cc(Cl)cc2n1 [Example 251, 2-((2-(7-chloro-2-methoxyquinoxalin-5-yl)-4-methylbenzo[d]thiazol-6-yl)oxy)acetic acid] | 17 nM |
| COc1ccc(NC(=O)OCCOc2cc(C)c3nc(-c4cc(CO)cc5nc(OC)cnc45)sc3c2)cn1 [Example 252, 2-((2-(7-(hydroxymethyl)-2-methoxyquinoxalin-5-yl)-4-methylbenzo[d]thiazol-6-yl)oxy)ethyl (6-methoxypyridin-3-yl)carbamate] | 0.5 nM |
| COCc1cnc2c(-c3nc4ccc(OC)cc4s3)cc(C)cc2n1 [Example 253, 6-methoxy-2-(2-(methoxymethyl)-7-methylquinoxalin-5yl)benzo[d]thiazole] | 0.6 nM |
| COCc1cnc2c(-c3nc4c(F)cc(OC)cc4s3)cc(C)cc2n1 [Example 254, 4-fluoro-6-methoxy-2-(2-(methoxymethyl)-7-methylquinoxalin-5-yl)benzo[d]thiazole] | 1.5 nM |
| CCOc1ccc2nc(-c3cc(C)cc4nc(COC)cnc34)sc2c1 [Example 255, 6-ethoxy-2-(2-(methoxymethyl)-7-methylquinoxalin-5-yl)benzo[d]thiazole] | 0.8 nM |
| COCc1cnc2c(-c3nc4ccccc4s3)cc(C)cc2n1 [Example 256, 2-(2-(methoxymethyl)-7-methylquinoxalin-5-yl)benzo[d]thiazole] | 1.2 nM |
| COCc1cnc2c(-c3nc4c(F)cc(F)cc4s3)cc(C)cc2n1 [Example 257, 4,6-difluoro-2-(2-(methoxymethyl)-7-methylquinoxalin-5-yl)benzo[d]thiazole] | 2.1 nM |
| COCc1cnc2c(-c3nc4c(OC)cc(OC)cc4s3)cc(C)cc2n1 [Example 258, 4,6-dimethoxy-2-(2-(methoxymethyl)-7-methylquinoxalin-5-yl)benzo[d]thiazole] | 2.8 nM |
| COCc1cnc2c(-c3nc4c(OC)cccc4s3)cc(C)cc2n1 [Example 259, 4-methoxy-2-(2-(methoxymethyl)-7-methylquinoxalin-5-yl)benzo[d]thiazole] | 14 nM |
| COCc1cnc2c(-c3nc4c(Cl)cccc4s3)cc(C)cc2n1 [Example 260, 4-chloro-2-(2-(methoxymethyl)-7-methylquinoxalin-5-yl)benzo[d]thiazole] | 4.8 nM |
| COCc1cnc2c(-c3nc4c(C)cccc4s3)cc(C)cc2n1 [Example 261, 2-(2-(methoxymethyl)-7-methylquinoxalin-5-yl)-4-methylbenzo[d]thiazole] | 1.2 nM |
| COCc1cnc2c(-c3nc4c(C)cc(OC(F)(F)F)cc4s3)cc(C)cc2n1 [Example 262, 2-(2-(methoxymethyl)-7-methylquinoxalin-5-yl)-4-methyl-6-(trifluoromethoxy)benzo[d]thiazole] | 0.8 nM |
| COCc1cnc2c(-c3nc4c(C)cc(OC(F)F)cc4s3)cc(C)cc2n1 [Example 263, 6-(difluoromethoxy)-2-(2-(methoxymethyl)-7-methylquinoxalin-5-yl)-4-methylbenzo[d]thiazole] | 0.8 nM |
| COCc1cnc2c(-c3nc4ccc(C(=O)OC)cc4s3)cc(C)cc2n1 [Example 264] | 8.3 nM |
| COCc1cnc2c(-c3nc4c(Cl)cc(OC)c(F)c4s3)cc(C)cc2n1 [Example 265, 4-chloro-7-fluoro-6-methoxy-2-(2-(methoxymethyl)-7-methylquinoxalin-5-yl)benzo[d]thiazole] | 6.8 nM |
| COCc1cnc2c(-c3nc4c(Cl)cc(F)cc4s3)cc(C)cc2n1 [Example 266, 4-chloro-6-fluoro-2-(2-(methoxymethyl)-7-methylquinoxalin-5-yl)benzo[d]thiazole] | 2.2 nM |
| COCc1cnc2c(-c3nc4c(F)c(F)c(OC)cc4s3)cc(C)cc2n1 [Example 267, 4,5-difluoro-6-methoxy-2-(2-(methoxymethyl)-7-methylquinoxalin-5-yl)benzo[d]thiazole] | 0.8 nM |
| COCc1cnc2c(-c3nc4cc(Cl)c(OC)cc4s3)cc(C)cc2n1 [Example 268, 5-chloro-6-methoxy-2-(2-(methoxymethyl)-7-methylquinoxalin-5-yl)benzo[d]thiazole] | 0.9 nM |
| COCc1cnc2c(-c3nc4c(OC)c(F)c(F)cc4s3)cc(C)cc2n1 [Example 269, 5,6-difluoro-4-methoxy-2-(2-(methoxymethyl)-7-methylquinoxalin-5-yl)benzo [d]thiazole] | 3.6 nM |
| COCc1cnc2c(-c3nc4c(OC)cc(F)cc4s3)cc(C)cc2n1 [Example 270, 6-fluoro-4-methoxy-2-(2-(methoxymethyl)-7-methylquinoxalin-5-yl)benzo[d]thiazole] | 17 nM |

| SMILES | IC50 |
| --- | --- |
| COCc1cnc2c(-c3nc4c(OC)c(F)c(OC)cc4s3)cc(C)cc2n1 [Example 271, 5-fluoro-4,6-dimethoxy-2-(2-(methoxymethyl)-7-methylquinoxalin-5-yl)benzo[d]thiazole] | 1.5 nM |
| COCc1cnc2c(-c3nc4ccc(F)cc4s3)cc(C)cc2n1 [Example 272, 6-fluoro-2-(2-(methoxymethyl)-7-methylquinoxalin-5-yl)benzo[d]thiazole] | 3.2 nM |
| COCc1cnc2c(-c3nc4c(F)cccc4s3)cc(C)cc2n1 [Example 273, 4-fluoro-2-(2-(methoxymethyl)-7-methylquinoxalin-5-yl)benzo[d]thiazole] | 4.3 nM |
| COCc1cnc2c(-c3nc4ccc(Cl)cc4s3)cc(C)cc2n1 [Example 274, 6-chloro-2-(2-(methoxymethyl)-7-methylquinoxalin-5-yl)benzo[d]thiazole] | 5.7 nM |
| COCc1cnc2c(-c3nc4c(Cl)cc(Cl)cc4s3)cc(C)cc2n1 [Example 275, 4,6-dichloro-2-(2-(methoxymethyl)-7-methylquinoxalin-5-yl)benzo[d]thiazole] | 0.9 nM |
| COCc1cnc2c(-c3nc4cc(C)c(OC)cc4s3)cc(C)cc2n1 [Example 276, 6-methoxy-2-(2-(methoxymethyl)-7-methylquinoxalin-5-yl)-5-methylbenzo[d]thiazole] | 1.2 nM |
| COCc1cnc2c(-c3nc4cc(F)c(OC)cc4s3)cc(C)cc2n1 [Example 277, 5-fluoro-6-methoxy-2-(2-(methoxymethyl)-7-methylquinoxalin-5-yl)benzo[d]thiazole] | 9 nM |
| COc1cnc2c(-c3nc4c(F)c(F)c(OC)cc4s3)cc(C)cc2n1 [Example 278, 4,5-difluoro-6-methoxy-2-(2-methoxy-7-methylquinoxalin-5-yl)benzo[d]thiazole] | 4.6 nM |
| COc1cnc2c(-c3nc4cc(C)c(OC)cc4s3)cc(C)cc2n1 [Example 279, 6-methoxy-2-(2-methoxy-7-methylquinoxalin-5-yl)-5-methylbenzo[d]thiazole] | 18 nM |
| COc1cnc2c(-c3nc4cc(F)c(OC)cc4s3)cc(C)cc2n1 [Example 280, 5-fluoro-6-methoxy-2-(2-methoxy-7-methylquinoxalin-5-yl)benzo[d]thiazole] | 4.3 nM |
| COCc1cnc2c(-c3nc4c(C)cc(O)cc4s3)cc(C)cc2n1 [Example 281, 2-(2-(methoxymethyl)-7-methylquinoxalin-5-yl)-4-methylbenzo[d]thiazol-6-ol] | 3.6 nM |
| COc1cnc2c(-c3nc4c(Cl)c(F)c(OC)cc4s3)cc(C)cc2n1 [Example 282, 4-chloro-5-fluoro-6-methoxy-2-(2-methoxy-7-methylquinoxalin-5-yl)benzo[d]thiazole] | 1.1 nM |
| COCc1cnc2c(-c3nc4c(Cl)c(F)c(OC)cc4s3)cc(C)cc2n1 [Example 283, 4-chloro-5-fluoro-6-methoxy-2-(2-(methoxymethyl)-7-methylquinoxalin-5-yl)benzo[d]thiazole] | 1.9 nM |
| COCc1cnc2c(-c3nc4c(C)c(C)c(OC)cc4s3)cc(C)cc2n1 [Example 284, 6-methoxy-2-(2-(methoxymethyl)-7-methylquinoxalin-5-yl)-4,5-dimethylbenzo[d]thiazole] | 5.9 nM |
| COC(=O)COc1cc2sc(-c3cc(C)cc4nc(OC)cnc34)nc2c(C)c1F [Example 285, methyl 2-((5-fluoro-2-(2-methoxy-7-methylquinoxalin-5-yl)-4-methylbenzo[d]thiazol-6-yl)oxy)acetate] | 16 nM |
| COCc1cnc2c(-c3nc4c(C)c(F)c(OCC(=O)OC)cc4s3)cc(C)cc2n1 [Example 286, methyl 2-((5-fluoro-2-(2-(methoxymethyl)-7-methylquinoxalin-5-yl)-4-methylbenzo[d]thiazol-6-yl)oxy)acetate] | 0.5 nM |
| COC(=O)COc1cc2sc(-c3cc(C)cc4nc(OC)cnc34)nc2c(Cl)c1F [Example 287, methyl 2-((4-chloro-5-fluoro-2-(2-methoxy-7-methylquinoxalin-5-yl)benzo[d]thiazol-6-yl)oxy)acetate] | 8.5 nM |
| COc1cnc2c(-c3nc4c(C)c(F)c(OCCO)cc4s3)cc(C)cc2n1 [Example 288, 2-((5-fluoro-2-(2-methoxy-7-methylquinoxalin-5-yl)-4-methylbenzo[d]thiazol-6-yl)oxy)ethanol] | 8.6 nM |
| COCc1cnc2c(-c3nc4c(C)c(F)c(OCCO)cc4s3)cc(C)cc2n1 [Example 289, 2-((5-fluoro-2-(2-(methoxymethyl)-7-methylquinoxalin-5-yl)-4-methylbenzo[d]thiazol-6-yl)oxy)ethanol] | 1.3 nM |
| COCc1cnc2c(-c3nc4c(C)c(F)c(O)cc4s3)cc(C)cc2n1 [Example 290, 5-fluoro-2-(2-(methoxymethyl)-7-methylquinoxalin-5-yl)-4-methylbenzo[d] thiazol-6-ol] | 6 nM |
